Test [1] addresses von Hippel-Lindau disease tumor suppressor/Cyclin-dependent kinase 6 (Homo sapiens, UniProt P40337+Q00534). Put plainly: PROTAC activity at VHL/CDK6 in human MM1.S cells assessed as induction of CDK6 degradation incubated for 16 hrs by Western blot analysis. Format: cell-based. Background: Immunoblotting shows a protein as a band on a membrane.
Test [2] concerns the target von Hippel-Lindau disease tumor suppressor/Cyclin-dependent kinase 6 (Homo sapiens) (UniProt Q00534+P40337). Briefly: PROTAC activity at VHL/CDK6 in human MM1.S cells assessed as induction of CDK6 degradation at 0.1 to 1 uM incubated for 16 hrs by Western blot analysis relative to control. It is filed as cell-based. The settings on record: dose 0.1-1 µM.
Test [3] concerns the target von Hippel-Lindau disease tumor suppressor/Cyclin-dependent kinase 4 (Homo sapiens, UniProt P11802+P40337). Put plainly: PROTAC activity at VHL/CDK4 in human MM1.S cells assessed as induction of […] degradation incubated for 16 hrs by Western blot analysis. Format: cell-based.
Test [4] deals with T1, Protein cereblon/Bcl-2-like protein 1 (Homo sapiens, UniProt Q07817+Q96SW2). Put plainly: PROTAC activity at CRBN/BCL-XL in human WI-38 cells assessed as induction of BCL-XL degradation incubated for 16 hrs by Western blot analysis relative to control. It is filed as cell-based.
Target sequence in this assay (Q07817 whole entry, looked up): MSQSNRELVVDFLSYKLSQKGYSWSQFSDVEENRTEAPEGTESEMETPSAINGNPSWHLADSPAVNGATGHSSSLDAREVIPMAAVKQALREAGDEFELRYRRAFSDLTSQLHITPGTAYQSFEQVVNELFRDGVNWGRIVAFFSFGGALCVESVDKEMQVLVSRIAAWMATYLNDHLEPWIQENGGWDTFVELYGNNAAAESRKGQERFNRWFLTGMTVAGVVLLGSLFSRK
Target sequence in this assay (Q96SW2 whole entry, looked up): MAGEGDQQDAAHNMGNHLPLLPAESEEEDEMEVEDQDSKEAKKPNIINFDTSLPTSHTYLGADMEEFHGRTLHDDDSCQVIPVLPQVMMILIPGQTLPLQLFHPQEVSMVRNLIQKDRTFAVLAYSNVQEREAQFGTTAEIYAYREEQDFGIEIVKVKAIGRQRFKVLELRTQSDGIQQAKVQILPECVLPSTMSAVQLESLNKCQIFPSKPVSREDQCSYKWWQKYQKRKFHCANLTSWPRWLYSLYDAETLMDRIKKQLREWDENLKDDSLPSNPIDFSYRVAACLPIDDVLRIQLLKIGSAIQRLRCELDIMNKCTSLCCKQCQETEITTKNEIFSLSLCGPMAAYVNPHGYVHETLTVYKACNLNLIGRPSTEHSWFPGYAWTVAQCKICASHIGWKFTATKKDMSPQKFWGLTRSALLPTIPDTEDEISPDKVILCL
The target in test [5] is T1, Protein cereblon/Bcl-2-like protein 1. Briefly: PROTAC activity at CRBN/BCL-XL in human WI-38 cells assessed as induction of BCL-XL degradation incubated for 16 hrs by Western blot analysis. Format: cell-based.
Target sequence in this assay (Q07817 whole entry): as the sequence (Q07817 whole entry, looked up) above
Target sequence in this assay (Q96SW2 whole entry): as the sequence (Q96SW2 whole entry, looked up) above
Test [6] concerns the target von Hippel-Lindau disease tumor suppressor/Focal adhesion kinase 1 (Homo sapiens) (UniProt Q05397+P40337). Put plainly: PROTAC activity at VHL/FAK in human PC-3 cells assessed as induction of FAK degradation incubated for 24 hrs by immunoblot analysis relative to control. It is filed as cell-based.
Test [7] deals with von Hippel-Lindau disease tumor suppressor/Focal adhesion kinase 1 (Homo sapiens, UniProt P40337+Q05397). Briefly: PROTAC activity at VHL/FAK in human PC-3 cells assessed as induction of FAK degradation incubated for 24 hrs by immunoblot analysis. Format: cell-based.
Test [8] addresses T2, Protein cereblon/Tyrosine-protein kinase BTK (Homo sapiens, UniProt Q06187+Q96SW2, C481S). Briefly: PROTAC activity at CRBN/BTK C481S mutant transfected in human HBL1 cells assessed as induction of BTK C481S degradation incubated for 36 hrs by Western blot analysis. It is filed as cell-based.
Test [9] deals with T3, von Hippel-Lindau disease tumor suppressor/Mitogen-activated protein kinase 14 (Homo sapiens, UniProt P40337+Q16539). Put plainly: PROTAC activity at VHL/p38alpha (unknown origin) assessed as dissociation constant by competitive binding assay.
T3 sequence (Q16539 whole entry): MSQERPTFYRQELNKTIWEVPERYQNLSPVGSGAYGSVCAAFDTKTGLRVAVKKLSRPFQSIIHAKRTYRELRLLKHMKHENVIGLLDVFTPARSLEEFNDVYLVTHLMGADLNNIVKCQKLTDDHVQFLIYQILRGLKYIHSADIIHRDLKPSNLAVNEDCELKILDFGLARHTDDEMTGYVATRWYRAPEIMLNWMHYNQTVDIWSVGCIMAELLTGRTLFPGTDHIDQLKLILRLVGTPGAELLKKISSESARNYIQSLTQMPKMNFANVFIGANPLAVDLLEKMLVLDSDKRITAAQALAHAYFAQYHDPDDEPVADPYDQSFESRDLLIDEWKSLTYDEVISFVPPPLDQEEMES
T3 sequence (P40337 whole entry): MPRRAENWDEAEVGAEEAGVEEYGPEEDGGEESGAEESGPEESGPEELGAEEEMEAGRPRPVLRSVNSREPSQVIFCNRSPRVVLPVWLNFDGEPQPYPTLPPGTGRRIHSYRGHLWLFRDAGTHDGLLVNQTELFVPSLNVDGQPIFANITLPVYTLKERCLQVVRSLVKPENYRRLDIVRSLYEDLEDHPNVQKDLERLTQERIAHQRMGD
Test [10] concerns the target T3, von Hippel-Lindau disease tumor suppressor/Mitogen-activated protein kinase 14. Put plainly: PROTAC activity at VHL/p38alpha in human MDA-MB-231 cells assessed as induction of p38alpha degradation incubated for 24 hrs by Western blot analysis. Format: cell-based.
In test [11] the target is von Hippel-Lindau disease tumor suppressor/Mitogen-activated protein kinase 14 (Homo sapiens) (UniProt Q16539+P40337). Put plainly: PROTAC activity at VHL/p38alpha in human MDA-MB-231 cells assessed as induction of p38alpha degradation incubated for 24 hrs by Western blot analysis relative to control. It is filed as cell-based.
Chain of von Hippel-Lindau disease tumor suppressor/Mitogen-activated protein kinase 14 (Homo sapiens) (P40337 whole entry partner): as the sequence (P40337 whole entry) above
Chain of von Hippel-Lindau disease tumor suppressor/Mitogen-activated protein kinase 14 (Homo sapiens) (Q16539 2-360 limits assumed): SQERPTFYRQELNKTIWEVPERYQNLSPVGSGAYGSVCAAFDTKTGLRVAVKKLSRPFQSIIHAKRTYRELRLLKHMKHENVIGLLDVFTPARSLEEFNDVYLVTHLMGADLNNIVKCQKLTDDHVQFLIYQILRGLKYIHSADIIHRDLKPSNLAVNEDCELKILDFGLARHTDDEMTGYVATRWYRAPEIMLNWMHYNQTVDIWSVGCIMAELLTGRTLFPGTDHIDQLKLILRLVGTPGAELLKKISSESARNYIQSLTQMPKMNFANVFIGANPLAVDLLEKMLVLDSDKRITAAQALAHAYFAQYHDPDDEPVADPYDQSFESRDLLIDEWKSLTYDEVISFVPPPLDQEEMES
Test [12] addresses T2, Protein cereblon/Tyrosine-protein kinase BTK. Briefly: PROTAC activity at CRBN/BTK C481S mutant transfected in human HeLa cells assessed as induction of BTK C481S degradation incubated for 4 days by immunoblot analysis. It is filed as cell-based.
For test [13], the target named is Protein cereblon/Peptidyl-prolyl cis-trans isomerase FKBP1A (Homo sapiens, UniProt P62942+Q96SW2). Put plainly: PROTAC activity at CRBN/FKBP12 in human Jurkat cells assessed as induction of FKBP12 degradation incubated for 12 hrs by Western blot analysis. Format: cell-based.
The target of test [14] is T4, Protein cereblon/Retinal rod rhodopsin-sensitive cGMP 3',5'-cyclic phosphodiesterase subunit delta (Homo sapiens, UniProt O43924+Q96SW2). Briefly: PROTAC activity at CRBN/PDEdelta in human PancTu-I assessed as induction of PDEdelta degradation incubated for 24 hrs by immunoblot analysis relative to control. It is filed as cell-based.
Test [15] concerns the target T4, Protein cereblon/Retinal rod rhodopsin-sensitive cGMP 3',5'-cyclic phosphodiesterase subunit delta. Briefly: PROTAC activity at CRBN/PDEdelta in human PancTu-I assessed as induction of PDEdelta degradation incubated for 24 hrs by immunoblot analysis. It is filed as cell-based.

T2 sequence (Q06187 2-659 C481S limits assumed, stated change not applied): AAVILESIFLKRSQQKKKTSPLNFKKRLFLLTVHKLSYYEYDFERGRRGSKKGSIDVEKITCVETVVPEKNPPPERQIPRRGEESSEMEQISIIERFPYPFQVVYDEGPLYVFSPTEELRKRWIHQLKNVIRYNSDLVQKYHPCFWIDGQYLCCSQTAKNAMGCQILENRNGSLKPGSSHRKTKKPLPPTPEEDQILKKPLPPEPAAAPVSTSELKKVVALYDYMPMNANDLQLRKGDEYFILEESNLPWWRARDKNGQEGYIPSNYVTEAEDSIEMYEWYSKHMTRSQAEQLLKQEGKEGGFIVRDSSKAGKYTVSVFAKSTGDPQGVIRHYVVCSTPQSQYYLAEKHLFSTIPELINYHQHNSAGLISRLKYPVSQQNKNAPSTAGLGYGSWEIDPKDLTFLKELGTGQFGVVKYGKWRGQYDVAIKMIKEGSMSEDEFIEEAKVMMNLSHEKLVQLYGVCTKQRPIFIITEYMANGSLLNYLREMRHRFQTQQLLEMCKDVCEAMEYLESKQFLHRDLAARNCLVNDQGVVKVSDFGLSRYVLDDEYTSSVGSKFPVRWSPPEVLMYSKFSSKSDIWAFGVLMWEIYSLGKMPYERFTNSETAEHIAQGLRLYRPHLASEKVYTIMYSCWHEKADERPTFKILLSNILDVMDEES
T2 sequence (Q96SW2 whole entry, stated change not applied): as the sequence (Q96SW2 whole entry, looked up) above
Chain of von Hippel-Lindau disease tumor suppressor/Cyclin-dependent kinase 6 (Q00534 whole entry): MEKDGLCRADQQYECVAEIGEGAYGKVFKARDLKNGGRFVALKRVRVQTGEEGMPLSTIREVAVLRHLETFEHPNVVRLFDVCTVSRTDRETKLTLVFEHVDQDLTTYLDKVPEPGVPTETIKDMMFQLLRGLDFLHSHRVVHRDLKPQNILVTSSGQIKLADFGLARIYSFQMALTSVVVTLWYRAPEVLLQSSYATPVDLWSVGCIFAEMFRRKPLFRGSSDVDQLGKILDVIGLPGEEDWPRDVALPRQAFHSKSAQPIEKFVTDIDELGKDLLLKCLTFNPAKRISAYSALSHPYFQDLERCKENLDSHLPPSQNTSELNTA
Chain of von Hippel-Lindau disease tumor suppressor/Cyclin-dependent kinase 6 (P40337 whole entry): as the sequence (P40337 whole entry) above
Chain of von Hippel-Lindau disease tumor suppressor/Cyclin-dependent kinase 6 (Homo sapiens) (P40337 whole entry, looked up): as the sequence (P40337 whole entry) above
Chain of von Hippel-Lindau disease tumor suppressor/Cyclin-dependent kinase 6 (Homo sapiens) (Q00534 whole entry, looked up): as the sequence (Q00534 whole entry) above

On to `CC(=O)c1c(C)c2cnc(Nc3ccc(N4CCN(CCOCCOCCOc5cc(-c6scnc6C)ccc5CNC(=O)[C@H]5C[C@H](O)CN5C(=O)[C@@H](NC(=O)C5(F)CC5)C(C)(C)C)CC4)cn3)nc2n(C2CCCC2)c1=O`, for which the EC50 (as a rule, the concentration giving half of the maximal effect) worked out at 5.1 nM in test [1] and 20 nM in test [3]. Further, the Emax (commonly the size of the effect at its maximum, as opposed to the concentration needed) in test [2] was above 95%.
On to `CC1(C)CCC(c2ccccc2)=C(CN2CCN(c3ccc(C(=O)NS(=O)(=O)c4ccc(N[C@H](CCN5CCN(C(=O)CCCn6cc(COCCOCCNc7cccc8c7C(=O)N(C7CCC(=O)NC7=O)C8=O)nn6)CC5)CSc5ccccc5)c(S(=O)(=O)C(F)(F)F)c4)cc3)CC2)C1` (stereo not given in full), for which, in test [4], the Emax came out at 96.2%. In test [5], the EC50 worked out at 46 nM.
As for `Cc1ncsc1-c1ccc(CNC(=O)[C@@H]2C[C@@H](O)CN2C(=O)[C@@H](NC(=O)CCOCCOc2ccc(Nc3ncc(C(F)(F)F)c(NCc4cccc(N(C)S(C)(=O)=O)c4)n3)cc2)C(C)(C)C)cc1`, the Emax in [6] stood at 99%. Moreover, the EC50 in test [7] amounted to 3 nM.
Consider `Nc1ncnc2c1c(-c1ccc(Oc3ccccc3)cc1)nn2[C@@H]1CCCN(C(=O)c2cn(CCOCCOCCOCCCc3cccc4c3CN(C3CCC(=O)NC3=O)C4=O)nn2)C1` (stereo not given in full), for which, in [8], the EC50 turned out to be 29 nM.
As to `COc1cc2c(Oc3ccc(NC(=O)C4(C(=O)Nc5ccc(F)cc5)CC4)cc3F)cccc2cc1OCCCOCCCOCCC(=O)N[C@H](C(=O)N1C[C@H](O)C[C@H]1C(=O)NCc1ccc(-c2scnc2C)cc1)C(C)(C)C`, the dissociation constant Kd – broadly, the constant that tells how readily two partners part at equilibrium – in test [9] came to 11000 nM. The EC50 in test [10] was 210 nM. The Emax in [11] was 91%.
`Nc1ncnc2c1c(-c1ccc(Oc3ccccc3)cc1)nn2[C@@H]1CCCN(C(=O)c2cn(CCOCCOCCOCCNc3cccc4c3C(=O)N(C3CCC(=O)NC3=O)C4=O)nn2)C1` (stereo not given in full): in test [12], the EC50 was found to be 30 nM.
With `CO[C@H]1C[C@@H]2CC[C@@H](C)[C@@](O)(O2)C(=O)C(=O)N2CCCC[C@H]2C(=O)O[C@H]([C@@H](C)C[C@@H]2CC[C@@H](OCCOCc3cn(CCOCCOCCNc4cccc5c4C(=O)N(C4CCC(=O)NC4=O)C5=O)nn3)[C@H](OC)C2)CC(=O)[C@H](C)/C=C(\C)[C@@H](O)[C@H](OC)C(=O)[C@H](C)C[C@H](C)/C=C/C=C/C=C/1C` (stereo not given in full), the EC50 in test [13] was below 0.3 nM.
For `O=C1CCC(N2C(=O)c3cccc(NCCOCCOCCOCCOCCNC(=O)c4ccc(CN(CC5CCNCC5)S(=O)(=O)c5ccc(S(=O)(=O)N(Cc6ccc(Cl)cc6)C6CCCC6)cc5)cc4)c3C2=O)C(=O)N1` (stereo not given), the Emax in test [14] came to 85%. Besides, the EC50 in test [15] was 48 nM.

Values taken from ChEMBL document CHEMBL5104095, “Proteolysis targeting chimera (PROTAC) in drug discovery paradigm: Recent progress and future challenges” (Eur J Med Chem, 2021).
